Experimental data as given in article PMC8617031, “Development of a BCL-xL and BCL-2 dual degrader with improved anti-leukemic activity,” (Nature Communications, 2021).
Values joined by “and” are separate entries in the source; they are usually repeats but may differ in a detail not shown here. Equal entries are not always repeated. Where two headings read alike, the source gives them in different places.

How the values were obtained:
[1] = target: T1, BCL-2/PROTAC/VCB ternary complex (Homo sapiens, UniProt P10415+P40337); assay: AlphaLISA ternary complex formation, cell-free, BCL-2; type: binding; details: raw plate signal, duplicate wells
T1 construct: pGEX-6P-1-VHL(54-213) (pDL2200) was constructed through Gibson assembly method; made in house; host or cells: bacterial culture (LB broth, IPTG induction)
Outline: (§1)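 Cell-free AlphaLISA: 5 nM His-tagged BCL-xL or BCL-2 plus 5 nM GST-VCB incubated with fourfold serially diluted compound 30 min at room temperature. Glutathione donor and His acceptor beads (20 µg/ml each) then added for 15 and 45 min; AlphaLISA signal plotted against compound concentration.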

Kasumi-1 cells = assay: Viability (MTS) of Kasumi-1 AML cells; type: cell-based, human; details: for viability at 0.0411523 µM / viability at 0.37037 µM / viability at 1.11111 µM / viability at 3.33333 µM / viability at 10 µM / viability at […] / IC50: Homo sapiens; for viability at 0.0411523 µM: Kasumi 1, Concentration 0.0411523 uM; for viability at 0.0411523 µM / viability at 0.37037 µM / viability at 1.11111 µM / viability at 3.33333 µM / viability at 10 µM / viability at […]: Supplementary Fig. 12b; for viability at 0.37037 µM: Kasumi 1, Concentration 0.37037 uM; for viability at 1.11111 µM: Kasumi 1, Concentration 1.11111 uM; for viability at 3.33333 µM: Kasumi 1, Concentration 3.33333 uM; for viability at 10 µM: Kasumi 1, Concentration 10 uM; for viability at […]: Kasumi 1, Concentration […]; for IC50: Kasumi 1, 72 h
[2] = target: T2, BCL-xL/PROTAC/VHL-ELOC-ELOB (VCB) ternary complex (Homo sapiens, UniProt P40337+Q07817); assay: AlphaLISA ternary complex formation, cell-free, BCL-xL; type: binding; details: Fig. 3e raw Alpha reads
T2 construct: pGEX-6P-1-VHL(54-213) (pDL2200) was constructed through Gibson assembly method; made in house; host or cells: bacterial culture (LB broth, IPTG induction)
Outline: as §1

Hela cells = assay: Viability (MTS) of Hela cells; type: cell-based, human; details: in % (unit assumed)
Description: (§2) Suspension cells were treated 30 min after seeding, whereas adherent cells were allowed to adhere overnight and were then treated. Compound treatments were prepared in complete cell culture medium and 100 µl of 2× treatment-containing medium were added to each well. Complete cell culture medium without treatment was added in control wells, and wells containing medium without cells served as background. The outer wells of the 96-well plate were not used for treatment and were filled with 250 µl of PBS to reduce evaporation of medium from inner wells. Each compound and/or combination was tested at nine different concentrations with three replicates. The cell viability was measured after 72 h by tetrazolium-based MTS assay. MTS reagent (2 mg ml^–1 stock; cat. no. G1111, Promega) was freshly supplemented with phenazine methosulfate (PMS, 0.92 mg ml^–1 stock, cat. no. P9625, Sigma-Aldrich) in 20:1 ratio, and 20 µl of this mixture was added to each control and treatment well. The cells were incubated for 4 h at 37 °C and 5% CO2, and then the absorbance was recorded at 490 nm using Biotek’s Synergy Neo2 multimode plate reader (Biotek). The average absorbance value of background wells was subtracted from absorbance value of each control and treatment well, and percent cell viability ((At/A0) × 100)) was determined in each treatment well, where At is the absorbance value of the treatment well and A0 is the average absorbance value of control wells after background subtraction. The data were expressed as average percentage cell viability and fitted in non-linear regression curves using GraphPad Prism 7 (GraphPad Software, La Jolla, CA, USA).

293T cells = assay: Viability (MTS) of 293T cells; type: cell-based, human; details: normalised to own plate; for 293T cell viability, MTS absorbance 490 as percent of untreated control, mean of three wells: mean of 3 wells
Description: as §2

[3] = Average of 3 wells, read-out: MTS viability, percent of 0 uM control, Average
[4] = single well, read-out: MTS viability, corrected absorbance 490 as percent of 0 uM control

T1 sequence (P10415 1-211 limits assumed): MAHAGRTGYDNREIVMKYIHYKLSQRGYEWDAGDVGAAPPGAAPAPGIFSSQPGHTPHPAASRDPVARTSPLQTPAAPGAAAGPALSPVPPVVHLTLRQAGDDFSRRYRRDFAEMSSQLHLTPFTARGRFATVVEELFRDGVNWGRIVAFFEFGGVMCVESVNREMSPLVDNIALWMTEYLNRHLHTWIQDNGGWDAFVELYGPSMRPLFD
T1 sequence (P40337 54-213 limits assumed): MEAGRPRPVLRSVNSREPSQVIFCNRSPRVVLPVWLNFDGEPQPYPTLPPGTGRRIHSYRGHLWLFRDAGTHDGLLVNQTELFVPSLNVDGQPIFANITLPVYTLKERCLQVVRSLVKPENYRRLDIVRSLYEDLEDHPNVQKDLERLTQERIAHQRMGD
T1 sequence (Q15369 17-112 partner limits assumed): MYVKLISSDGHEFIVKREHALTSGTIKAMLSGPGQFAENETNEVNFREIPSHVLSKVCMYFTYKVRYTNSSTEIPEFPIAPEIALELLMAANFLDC
T1 sequence (Q15370 whole entry partner): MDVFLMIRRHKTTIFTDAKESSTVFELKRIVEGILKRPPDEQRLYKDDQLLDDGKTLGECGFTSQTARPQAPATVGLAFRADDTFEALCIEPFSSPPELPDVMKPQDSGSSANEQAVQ
T2 sequence (Q07817 1-212 limits assumed): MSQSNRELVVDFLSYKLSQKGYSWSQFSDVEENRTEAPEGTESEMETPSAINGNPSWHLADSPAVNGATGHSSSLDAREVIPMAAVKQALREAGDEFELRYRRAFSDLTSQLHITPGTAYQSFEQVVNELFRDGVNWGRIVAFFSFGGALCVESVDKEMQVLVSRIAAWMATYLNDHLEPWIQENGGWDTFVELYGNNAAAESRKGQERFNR
T2 sequence (P40337 54-213 limits assumed): as the sequence (P40337 54-213 limits assumed) above
T2 sequence (Q15369 17-112 partner limits assumed): as the sequence (Q15369 17-112 partner limits assumed) above
T2 sequence (Q15370 whole entry partner): as the sequence (Q15370 whole entry partner) above

With `CC1(C)CCC(c2ccc(Cl)cc2)=C(CN2CCN(c3ccc(C(=O)NS(=O)(=O)c4ccc(N[C@H](CCN5CCOCC5)CSc5ccccc5)c(S(=O)(=O)C(F)(F)F)c4)cc3)CC2)C1` [ABT263, navitoclax] the “Alpha (Alpha Endpoint read, Bcl-2 ternary complex formation)” value ([1]; Conc. 0.0762939 nM) was 13075 and 14039, the “Alpha (Alpha Endpoint read, Bcl-2 ternary complex formation)” value ([1]; Conc. 0.305176 nM) was 25282 and 13828 and the “Alpha (Alpha Endpoint read, Bcl-2 ternary complex formation)” value ([1]; Conc. 1.2207 nM) was 26631 and 14952. For the same compound, the “Alpha (Alpha Endpoint read, Bcl-2 ternary complex formation)” value ([1]; Conc. 4.88281 nM) was 23864 and 13192, the “Alpha (Alpha Endpoint read, Bcl-2 ternary complex formation)” value ([1]; Conc. 78.125 nM) was 25354 and 12957 and the “Alpha (Alpha Endpoint read, Bcl-2 ternary complex formation)” value ([1]; Conc. 1250 nM) was 25045 and 14016. For the same compound, the “Alpha (Alpha Endpoint read, Bcl-2 ternary complex formation)” value ([1]; Conc. 20000 nM) was 20320 and 11437, the “Luminescence (raw plate reading)” value (Kasumi-1 cells; 3.90625 nM (plate column 2), Fig. 7a) was 652130 and 630259 and 658966 and 744397 and the “Luminescence (raw plate reading)” value (Kasumi-1 cells; 7.8125 nM (plate column 3), Fig. 7a) was 632892 and 633903 and 634701 and 712997. The “Luminescence (raw plate reading)” value (Kasumi-1 cells; 15.625 nM (plate column 4), Fig. 7a) was 642408 and 622919 and 622003 and 704279, the “Luminescence (raw plate reading)” value (Kasumi-1 cells; 31.25 nM (plate column 5), Fig. 7a) was 622577 and 612176 and 601421 and 652847 and the “Luminescence (raw plate reading)” value (Kasumi-1 cells; 62.5 nM (plate column 6), Fig. 7a) was 542999 and 553178 and 531814 and 597127. The “Luminescence (raw plate reading)” value (Kasumi-1 cells; 125 nM (plate column 7), Fig. 7a) was 381320 and 423693 and 412676 and 432347, the “Luminescence (raw plate reading)” value (Kasumi-1 cells; 250 nM (plate column 8), Fig. 7a) was 247450 and 230935 and 221189 and 256346 and the “Luminescence (raw plate reading)” value (Kasumi-1 cells; 500 nM (plate column 9), Fig. 7a) was 119937 and 119731 and 112901 and 107498. For the same compound, the “Luminescence (raw plate reading)” value (Kasumi-1 cells; 1000 nM (plate column 10), Fig. 7a) was 56843 and 48094 and 45547 and 41795, the “Luminescence (raw plate reading)” value (Kasumi-1 cells; 2000 nM = 2U (plate column 11), Fig. 7a) was 20891 and 18712 and 20895 and 17813 and the “Luminescence (raw plate reading)” value (Kasumi-1 cells; 4000 nM = 4U (plate column 12), Fig. 7a) was 11066 and 13361 and 10294 and 10997. For the same compound, the “Luminescence normalised to mean of the 0 concentration wells (= 100), viability” value (from here on “Luminescence normalised to mean”) (Kasumi-1 cells; 3.90625 (nM), Fig. 7a) was 95.2795 and 92.0841 and 96.2783 and 108.76, the “Luminescence normalised to mean” value (Kasumi-1 cells; 7.8125 (nM), Fig. 7a) was 92.4688 and 92.6165 and 92.7331 and 104.173 and the “Luminescence normalised to mean” value (Kasumi-1 cells; 15.625 (nM), Fig. 7a) was 93.8591 and 91.0117 and 90.8778 and 102.899. For the same compound, the “Luminescence normalised to mean” value (Kasumi-1 cells; 31.25 (nM), Fig. 7a) was 90.9617 and 89.442 and 87.8707 and 95.3843, the “Luminescence normalised to mean” value (Kasumi-1 cells; 62.5 (nM), Fig. 7a) was 79.3349 and 80.8221 and 77.7007 and 87.2433 and the “Luminescence normalised to mean” value (Kasumi-1 cells; 125 (nM), Fig. 7a) was 55.7128 and 61.9037 and 60.2941 and 63.1681. The “Luminescence normalised to mean” value (Kasumi-1 cells; 250 (nM), Fig. 7a) was 36.1537 and 33.7408 and 32.3168 and 37.4535, the “Luminescence normalised to mean” value (Kasumi-1 cells; 500 (nM), Fig. 7a) was 17.5234 and 17.4933 and 16.4954 and 15.706 and the “Luminescence normalised to mean” value (Kasumi-1 cells; 1000 (nM), Fig. 7a) was 8.305 and 7.027 and 6.655 and 6.106. The “Luminescence normalised to mean” value (Kasumi-1 cells; 2000 (nM, 2U), Fig. 7a) was 3.052 and 2.734 and 3.053 and 2.603, the “Luminescence normalised to mean” value (Kasumi-1 cells; 4000 (nM, 4U), Fig. 7a) was 1.6168 and 1.952 and 1.504 and 1.607 and the viability at 0.0411523 µM (Kasumi-1 cells; [3]) was 92.4%. The viability at 0.0411523 µM (Kasumi-1 cells; [4]) was 91%, the viability at 0.37037 µM (Kasumi-1 cells; [3]) was 20.7% and the viability at 0.37037 µM (Kasumi-1 cells; [4]) was 21.4%. It also gave a viability at 1.11111 µM (Kasumi-1 cells; [3]) of 18%, a viability at 1.11111 µM (Kasumi-1 cells; [4]) of 16.5% and a viability at 3.33333 µM (Kasumi-1 cells; [3]) of 13.1%. It also gave a viability at 3.33333 µM (Kasumi-1 cells; [4]) of 13.4%, a viability at 10 µM (Kasumi-1 cells; [3]) of 12.1% and a viability at 10 µM (Kasumi-1 cells; [4]) of 12.3%. For the same compound, the viability at […] (Kasumi-1 cells; [3]) was 78.8%, the viability at […] (Kasumi-1 cells; [4]) was 78.2% and the IC50 (Kasumi-1 cells; Fig. 7a, read-out: IC50, viability of Kasumi-1 AML cells) was 0.157 µM. The IC50 (Kasumi-1 cells; Fig. 7c, read-out: IC50, viability of Kasumi-1 cells) was 0.131 µM, the “AlphaLISA signal, BCL-xL/PROTAC/VCB” value ([2]; compound 0.19 nM) was 12691 and 9324 and the “AlphaLISA signal, BCL-xL/PROTAC/VCB” value ([2]; compound 0.76 nM) was 14711 and 17995. For the same compound, the “AlphaLISA signal, BCL-xL/PROTAC/VCB” value ([2]; compound 3.05 nM) was 28316 and 16721, the “AlphaLISA signal, BCL-xL/PROTAC/VCB” value ([2]; compound 12.21 nM) was 27882 and 17689 and the “AlphaLISA signal, BCL-xL/PROTAC/VCB” value ([2]; compound 195.31 nM) was 22883 and 13939. The “AlphaLISA signal, BCL-xL/PROTAC/VCB” value ([2]; compound 781.25 nM) was 12216 and 14015, the “AlphaLISA signal, BCL-xL/PROTAC/VCB” value ([2]; compound 3125 nM) was 19424 and 16133 and the “AlphaLISA signal, BCL-xL/PROTAC/VCB” value ([2]; compound 12500 nM) was 17056 and 15505. The “AlphaLISA signal, BCL-xL/PROTAC/VCB” value ([2]; compound 50000 nM, 2 technical replicates) was 14548 and 12360, the “cell viability normalised to control wells (single replicate)” value (“cell viability normalised” below) (Hela cells; MTS absorbance 490, Conc 0.00137174 uM) was 109.176 and 100.419 and the “cell viability normalised” value (Hela cells; MTS absorbance 490, Conc 0.00411523 uM) was 94.0029 and 98.8584. For the same compound, the “cell viability normalised” value (Hela cells; MTS absorbance 490, Conc 0.037037 uM) was 90.3613 and 97.2977, the “cell viability normalised” value (Hela cells; MTS absorbance 490, Conc 0.111111 uM) was 79.4364 and 85.7659 and 104.581 and the “cell viability normalised” value (Hela cells; MTS absorbance 490, Conc 0.333333 uM) was 80.9971 and 79.263. For the same compound, the “cell viability normalised” value (Hela cells; MTS absorbance 490, Conc 1 uM) was 85.9393 and 80.3035, the “cell viability normalised” value (Hela cells; MTS absorbance 490, Conc 3 uM) was 78.7428 and 78.4827 and the “293T cell viability, MTS absorbance 490 as percent of untreated control, mean of three wells” value (293T cells; 0.00137174 uM) was 97.7794. For the same compound, the “293T cell viability, MTS absorbance 490 as percent of untreated control, single replicate well” value (293T cells; 0.00137174 uM) was 98.6099 and 98.5015, the “293T cell viability, MTS absorbance 490 as percent of untreated control, mean of three wells” value (293T cells; 0.00411523 uM) was 103.484 and the “293T cell viability, MTS absorbance 490 as percent of untreated control, single replicate well” value (293T cells; 0.00411523 uM) was 107.709 and 108.359. For the same compound, the “293T cell viability, MTS absorbance 490 as percent of untreated control, single replicate well” value (293T cells; 0.037037 uM) was 116.375 and 110.092, the “293T cell viability, MTS absorbance 490 as percent of untreated control, single replicate well” value (293T cells; 0.111111 uM) was 96.1184 and 122.874 and 120.166 and the “293T cell viability, MTS absorbance 490 as percent of untreated control, single replicate well” value (293T cells; 0.333333 uM) was 101.968 and 111.934. The “293T cell viability, MTS absorbance 490 as percent of untreated control, single replicate well” value (293T cells; 1 uM) was 97.2017 and 104.893 and the “293T cell viability, MTS absorbance 490 as percent of untreated control, single replicate well” value (293T cells; 3 uM) was 60.8052 and 61.6718.
